Results on 15 compounds are retold here after patent US20230250096A1, “SUBSTITUTED PHENYL-1H-PYRROLO[2,3-c] PYRIDINE DERIVATIVES” (Janssen Pharmaceutica NV, priority 2021, published 2023).

Common to all, as to type: cell-based, human
In experiment [1] the test system is MOLM14 cells. The experiment in a line: Proliferation assay (spheroid confluence, 8 days), MOLM14. As to conditions: read-out: spheroid assay_MOLM14 IC50. A digest of the protocol: (§1)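 Cells grown as spheroids in ultra-low attachment round-bottom wells (200 MOLM14 or OCI-AML3, 300 KO-52 per well) with compound dilutions at 0.3% DMSO, 8 days, 37° C. Confluence from live-cell imaging at day 8; % effect normalized to DMSO and high-dose reference/staurosporin, absolute IC50 from variable-slope fit.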

For experiment [2], the system named is MEIS1 mRNA expression. The experiment in a line: MEIS1 mRNA expression assay (Quantigene Singleplex) in MOLM14 cells. As to conditions: 48 hours incubation. A digest of the protocol: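 MOLM14 cells, 3,750/well, exposed to increasing compound concentrations for 48 h. MEIS1 mRNA measured by QuantiGene Singleplex branched-DNA hybridization (lysis 45 min, hybridization 18–22 h, both 55 °C), normalized to RPL28. IC50 fitted to background-corrected fold change versus DMSO.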

Experiment [3] relates to KO-52 cells. The experiment in a line: Proliferation assay (spheroid confluence, 8 days), KO-52 control cell line. As to conditions: read-out: spheroid assay_KO-52 IC50. A digest of the protocol:
as §1

Read-outs that look alike come from different tables or passages of the source.

By IC50 is commonly meant the midpoint of a concentration-inhibition curve. Regarding `CN=S(=O)(c1cc(F)ccc1-n1cc(CC2CCN(CC3CCOCC3)C2)c2c(C)cncc21)C(C)C` (stereo not drawn) [Compound 77], the IC50 came out at 90 nM in experiment [1] (Homo sapiens, MOLM-14, MOLM14); 136 nM in experiment [2] (Homo sapiens, MOLM-14, 48 h); 5800 nM in experiment [3] (Homo sapiens).

`Cc1cncc2c1c(CC1CCN(CC3CCN(C(=O)N4CCOCC4)CC3)CC1)cn2-c1ccc(F)cc1C(=O)N(C)C(C)C` [Compound 204]: the IC50 came to 16 nM in experiment [1] (Homo sapiens, MOLM-14, MOLM14); 79 nM in experiment [2] (Homo sapiens, MOLM-14, 48 h); 1600 nM in experiment [3] (Homo sapiens).

As for `CC(=O)N1C[C@@H]2CN([C@H]3C[C@@H](C(C(C)C)N4CC[C@H](Cc5cn(-c6ccc(F)cc6C(=O)N(C)C(C)C)c6cncc(C)c56)C4)C3)C[C@H]2C1` (mixture of isomers) [Compound 21], the IC50 in experiment [1] (Homo sapiens, MOLM-14, MOLM14) is under 1.8 nM; in experiment [2] (Homo sapiens, MOLM-14, 48 h) it was under 2.3 nM; in experiment [3] (Homo sapiens), 2000 nM.

For `CC(=O)N1CCC(CN2CC[C@@H](Cc3cn(-c4ccc(F)cc4C(=O)N4CCC5CC54)c4cncc(C)c34)C2)CC1` (single isomer, unassigned) [Compound 311b], the IC50 was 35 nM in experiment [1] (MOLM14), 26 nM in experiment [2] and over 15000 nM in experiment [3].

Take `Cc1cncc2c1c(CC1CN(C[C@H]3CCOC3)C1)cn2-c1ccc(F)cc1C(=O)N(C)C(C)C` (single isomer, unassigned) [Compound 191a]: the half-inhibitory concentration (IC50) was 7 nM in experiment [1] (Homo sapiens, MOLM-14, MOLM14); 39 nM in experiment [2] (Homo sapiens, MOLM-14, 48 h); 4600 nM in experiment [3] (Homo sapiens).

Take `CN=S(=O)(c1cc(F)ccc1-n1cc(CC2CCN(CC3CCOCC3)C2)c2c(C)cncc21)C(C)C` (single isomer, unassigned) [Compound 77d]: the IC50 in experiment [1] (MOLM14) was 197 nM; in experiment [2], about 260 nM; in experiment [3], over 15000 nM.

For `Cc1cncc2c1c(CC1CN(CC3CCOCC3)C1)cn2-c1ccc(F)cc1C(=O)N1CCCC1CO` (stereo not drawn) [Compound 268], the IC50 was 88 nM in experiment [1] (Homo sapiens, MOLM-14, MOLM14); 37 nM in experiment [2] (Homo sapiens, MOLM-14, 48 h); over 15000 nM in experiment [3] (Homo sapiens).

For `CC(=O)N1CCC([C@H](CO)N2CC[C@@H](Cc3cn(-c4ccc(F)cc4C(=O)N(C)C(C)C)c4cncc(C)c34)C2)CC1` (single isomer, unassigned) [Compound 206a], the IC50 in experiment [1] (Homo sapiens, MOLM-14, MOLM14) is 13 nM; in experiment [2] (Homo sapiens, MOLM-14, 48 h), 24 nM; in experiment [3] (Homo sapiens), 6600 nM.

Consider `CC(=O)N1CCC(C)(CN2CC(Cc3cn(-c4ccc(F)cc4C(=O)N(C)C(C)C)c4cncc(C)c34)C2)CC1` [Compound 84], for which the IC50 in experiment [1] (Homo sapiens, MOLM-14, MOLM14) was 63 nM; in experiment [2] (Homo sapiens, MOLM-14, 48 h), 131 nM; in experiment [3] (Homo sapiens) it was 4300 nM.

On to `CC(=O)N1CCC(CN2CCC(Cc3cn(-c4ccc(F)cc4C(=O)N(C)C(C)C)c4cncc(C)c34)C2C)CC1` (stereo not drawn) [Compound 228], for which the IC50 in experiment [1] (Homo sapiens, MOLM-14, MOLM14) was 10 nM; in experiment [2], 8 nM; in experiment [3] (Homo sapiens), 5800 nM.

Turning to `CC(=O)N1CCC(C(C)N2CCC(Cc3cn(-c4ccc(F)cc4C(=O)N(C)C(C)C)c4cncc(C)c34)C2)CC1` (single isomer, unassigned) [Compound 116a], the IC50 in experiment [1] (Homo sapiens, MOLM-14, MOLM14) amounted to 8 nM; in experiment [2] (Homo sapiens, MOLM-14, 48 h), 5 nM; in experiment [3] (Homo sapiens) it was 3800 nM.

In the case of `CC(=O)N1CCC(CN2CC[C@@H](Cc3cn(-c4ccc(F)cc4C(=O)N4CC5CC4CO5)c4cncc(C)c34)C2)CC1` (stereo partly drawn) [Compound 312], the IC50 was 33 nM in experiment [1] (Homo sapiens, MOLM-14, MOLM14); 55 nM in experiment [2] (Homo sapiens, MOLM-14, 48 h); over 15000 nM in experiment [3] (Homo sapiens).

Regarding `CC(=O)N1CCN(CCCC(C(C)C)N2CC[C@H](Cc3cn(-c4ccc(F)cc4C(=O)N(C)C(C)C)c4cncc(C)c34)C2)CC1` (mixture of isomers) [Compound 9], the IC50 in experiment [1] (Homo sapiens, MOLM-14, MOLM14) came to 13 nM; in experiment [2] (Homo sapiens, MOLM-14, 48 h), 23 nM; in experiment [3] (Homo sapiens) it was 5600 nM.

With `CC(=O)N1CCC(CN2CC[C@@H](Cc3cn(-c4ccc(F)cc4C(=O)N4[C@@H](C)CC[C@@H]4C)c4cncc(C)c34)C2)CC1` [Compound 316], the IC50 was 12 nM in experiment [1] (Homo sapiens, MOLM-14, MOLM14); 29 nM in experiment [2] (Homo sapiens, MOLM-14, 48 h); 8900 nM in experiment [3] (Homo sapiens).

For `Cc1cncc2c1c(CC1CCN(CC3CCN(C(=O)[C@H](C)O)CC3)C1)cn2-c1ccc(F)cc1C(=O)N(C)C(C)C` (single isomer, unassigned) [Compound 86], the IC50 in experiment [1] (Homo sapiens, MOLM-14, MOLM14) worked out at 10 nM; in experiment [2] (Homo sapiens, MOLM-14, 48 h) it was 21 nM; in experiment [3] (Homo sapiens), 1300 nM.
